The subject of assay [1] is SOCE/Orai1 in non-CF peripheral blood neutrophils. As to the kind of experiment: Fluo-4 Ca2+ assay, global thapsigargin-stimulated Ca2+ response (SOCE), non-CF neutrophils. Type of assay: cell-based, human. The conditions noted are these: 10 μM peptide, 3 h pre-treatment, 1 μM thapsigargin, N = 10 donors. The protocol:
(§1) Neutrophils were immediately isolated by negative selection from deidentified blood samples using an EasySep human neutrophil isolation kit (Stem Cell Technologies) as described. Cytosolic Ca^2+ was measured using Fluo-4 as described. Protein lysate from isolated blood neutrophils was characterized by liquid chromatography with tandem mass spectrometry (LC-MS/MS) as described. Degranulation products in media were quantified by Luminex assay using a custom Bio-Plex human kit (BioRad) per the manufacturer’s protocol […]. Detailed methods for all experiments and measurements are provided in an online data supplement.
(§2) Isolated neutrophils were incubated with peptide or vehicle control for 3 h. For the final hour of treatment, cells were loaded with Fluo-4 direct (Thermofisher) for 45 min at 37°C and 15 min at room temperature as described.
(§3) Fluo-4 Ca^2+ assays. Isolated neutrophils were incubated with peptide or vehicle control for 3 h. For the final hour of treatment, cells were loaded with Fluo-4 direct (Thermofisher) for 45 min at 37°C and 15 min at room temperature. For global Ca^2+ measurements, baseline fluorescent readings were made for 2 min (1 read every 30 s) using a Tecan Infinite M1000 plate reader (ex 494 em 516 nm, bandwidth 5 nm) before thapsigargin (Sigma-Aldrich) was added and the change in emission was recorded for 10 min (1 read every 30 s). To isolate phases of store operated Ca^2+ entry, cells underwent 3 rounds of centrifugation and resuspension in Ca^2+-free Ringer’s solution to remove extracellular Ca^2+. Baseline fluo-4 fluorescence was read for 2 min before cell were stimulated with thapsigargin (Tocris). Reads continued for ~5 min before 1.2 mM Ca^2+ was added to the extracellular solution and SOCE was measured for ~10 mins. For analysis, all fluo-4 fluorescence reads are normalized to baseline.

Assay [2] deals with SOCE/Orai1 in CF peripheral blood neutrophils. As to the kind of experiment: Fluo-4 Ca2+ assay, global thapsigargin-stimulated Ca2+ response (SOCE), CF neutrophils. It is filed as cell-based, human. The protocol: as §1, §2, §3
The test system of assay [3] is Ca2+ influx in non-CF neutrophils. As to the kind of experiment: Fluo-4 Ca2+ influx across the plasma membrane, non-CF neutrophils. It is filed as cell-based, human. The protocol:
as §2
(§4) Fig. 3. ELD607 inhibits SOCE in non-CF and CF neutrophils. (A) and (B) Mean changes in fluo-4 fluorescence as a marker of cytoplasmic Ca^2+ levels in non-CF and CF neutrophils respectively before and after stimulation with 1 μM thapsigargin (Tg). Before stimulation, neutrophils were exposed to vehicle (0.1% DMSO in PBS), 10 μM ELD607 or scrambled peptide (control) for 3 h. N = 10 non-CF and 21 CF donors. Stats show ELD607 vs vehicle or scrambled peptide based on color. (C-F) Isolation of ER Ca^2+ release vs Ca^2+ influx across the plasma membrane in non-CF and CF Neutrophils. Neutrophils were stimulated with thapsigargin (1 μM) in the absence of extracellular Ca^2+ to allow the release of Ca^2+ stores to be measured. Extracellular Ca^2+ was then returned so that extracellular Ca^2+ influx could be measured. (C) Mean fold change in Fluo-4 fluorescence during ER store release in non-CF and CF neutrophils. […] (E) Mean fold change in fluo-4 fluorescence during Ca^2+ influx in non-CF and CF neutrophils. […]
SOCE has 2 phases: release of Ca^2+ from ER stores and Ca^2+ influx from the extracellular space via Ca^2+ channels such as Orai1. […] Once the stores had emptied, extracellular Ca^2+ was reintroduced and Ca^2+ influx was measured (Fig. 3C–F).
Fluo-4 Ca^2+ assays. […] For global Ca^2+ measurements, baseline fluorescent readings were made for 2 min (1 read every 30 s) using a Tecan Infinite M1000 plate reader (ex 494 em 516 nm, bandwidth 5 nm) before thapsigargin (Sigma-Aldrich) was added and the change in emission was recorded for 10 min (1 read every 30 s). […] Baseline fluo-4 fluorescence was read for 2 min before cell were stimulated with thapsigargin (Tocris). Reads continued for ~5 min before 1.2 mM Ca^2+ was added to the extracellular solution and SOCE was measured for ~10 mins. For analysis, all fluo-4 fluorescence reads are normalized to baseline.

For assay [4], the system named is ER Ca2+ store release in CF neutrophils. As to the kind of experiment: Fluo-4 ER Ca2+ release, CF neutrophils. It is filed as cell-based, human. The following applies: 3 h pre-treatment, 1 μM thapsigargin, no extracellular Ca2+, 3 donors in triplicate, curves non-CF vs CF p<0.0001. The protocol:
as §2
as §4, with “(C-F) Isolation of ER Ca^2+ release vs Ca^2+ influx across the plasma membrane in non-CF and CF Neutrophils.” left out
SOCE has 2 phases: release of Ca^2+ from ER stores and Ca^2+ influx from the extracellular space via Ca^2+ channels such as Orai1. […] Once the stores had emptied, extracellular Ca^2+ was reintroduced and Ca^2+ influx was measured (Fig. 3C–F). […]

Assay [5] concerns HEK293T Orai1, Orai2 and Orai3 triple knockout cells. The assay can be described thus: SOCE in Orai1/2/3 triple knockout HEK293T cells. It is filed as cell-based. The conditions noted are these: thapsigargin, 7-9 replicates, 3 experiments. An excerpt:
(§5) We hypothesized that inhibiting SOCE in CF neutrophils may reduce the secretion of neutrophil elastase and other proteins associated with CF lung disease. To validate ELD607’s specificity for Orai1 over Orai2 and Orai3, we first evaluated ELD607 function in HEK293T cells that had Orai1, Orai2 and Orai3 stably knocked out. […] Next we evaluated ELD607’s ability to inhibit SOCE in non-CF and CF neutrophils.
(§6) Supplemental figure 3. […] Dose responses of thapsigargin-induced changes in cytoplasmic Ca^2+ concentrations. These studies were performed in HEK293T where Orai1, Orai2 and Orai3 had been stably knocked down (triple knockout cells, TKO) or in TKO cells that were transiently transfected with Orai1, Orai2 or Orai3 as indicated. All data are from 7-9 replicates per data point from 3 separate experiments.

Assay [6] deals with Orai1. The conditions noted are these: cartoon legend; reference not given; cited from earlier work. An excerpt: Fig. 6. Cartoon of SOCE in neutrophils in the absence (left) and presence (right) of ELD607. Left, activation of Gq-linked GPCRs by appropriate agonists (e.g. ATP) leads to formation of inositol triphosphate (IP3) and ER store Ca^2+ depletion. This in turn causes STIM1 to rapidly aggregate at ER-plasma membrane junctions where it causes Orai1 to activate and aggregate to provide a second, amplifying wave of Ca^2+ which triggers neutrophil degranulation, as well as activating other Ca^2+-dependent processes (not shown). Right, ELD607 binds to Orai1, causing it to be ubiquitinated, internalized ...

Assay [7] has as its system Pseudomonas aeruginosa-infected mice. The conditions noted are these: ref [21], cited from earlier work.
The subject of assay [8] is MRSA-infected mice. Details: method as in earlier work. The conditions noted are these: reduced lung injury, increased survival, ref [21]; cited from earlier work.
Assay [9] concerns Orai1. The assay can be described thus: SOCE in triple knockout HEK293T cells transfected with Orai1. Type of assay: cell-based. The conditions noted are these: TKO + Orai1, vs wild-type HEK293T; thapsigargin; dose response; 7-9 replicates; Orai1, 2, 3 plots differ p<0.001.
Source text: as §5, §6

Assay [10] has as its system Staphylococcus aureus-infected mice. The conditions noted are these: ref [21], cited from earlier work.

Results on 1 sequence are retold here after publication PMC12998938, “Neutrophil store-operated Ca^2+ entry: A correctable biomarker of cystic fibrosis lung disease progression” (Journal of cystic fibrosis : official journal of the …, 2025).

Consider “VHDIVNMLIRG [ELD607, size-optimized SPLUNC1/α6 peptidomimetic]”, for which the “inhibition of SOCE (global Ca2+ response)” value in assay [1] was “significantly inhibited SOCE regardless of genotype”; in [2] (CF, 10 μM peptide, 3 h pre-treatment, 1 μM thapsigargin, Fluo-4, N = 21 donors), “significantly inhibited SOCE regardless of genotype”. In addition, in assay [2] (neutrophils (discussion of Fig. 3)), the “completeness of inhibition of Ca2+ signaling” value is given as “not 100% inhibited”. For the same sequence, in assay [3] (non-CF neutrophils (Fig. 3)), the “attenuation of Ca2+ influx” value is “markedly attenuated Ca^2+ influx”. For the same sequence, the concentration for half-maximal inhibition (IC50) in [3] (non-CF, 3 h pre-treatment, 1 μM thapsigargin, extracellular Ca2+ (1.2 mM) returned, 2 donors in triplicate, vs CF p<0.0001) worked out at 340 nM; in [4], 413 nM. Besides, the “effect on SOCE” value in [5] was “no effect on SOCE”. Besides, the “effect on Orai1” value in [6] was “binds to Orai1, causing it to be ubiquitinated, internalized and degraded”. The “neutrophilia and neutrophil elastase release” value is “reduces neutrophilia and neutrophil elastase release” in assay [7] (P. aeruginosa-infected mice); “reduces neutrophilia and neutrophil elastase release” in [10] (S. aureus-infected mice). Also, the “neutrophil influx into the lungs” value is given as “reduces neutrophil influx into the lungs of mice” in assay [7] (mice, P. aeruginosa, reduced lung injury, increased survival); “reduces neutrophil influx into the lungs of mice” in [8]; “reduces neutrophil influx into the lungs of mice” in [10] (mice, S. aureus, reduced lung injury, increased survival). Moreover, in assay [9], the “sensitivity of SOCE to ELD607” value is on record as “restored the sensitivity to ELD607 seen in wild-type HEK293T cells”.

By IC50 is commonly meant the point on the concentration scale where inhibition reaches its midpoint.
